Assay [1] has as its target Sodium-dependent serotonin transporter (Rattus norvegicus, UniProt P31652). The assay can be described thus: In vitro radioligand [3H]-paroxetine from rat cortical Serotonin transporter.
Assay [2] is described as follows: Equipotent molar ratio of compound to that of standard (compound 1) was evaluated.

Chain of Sodium-dependent serotonin transporter (P31652 whole entry): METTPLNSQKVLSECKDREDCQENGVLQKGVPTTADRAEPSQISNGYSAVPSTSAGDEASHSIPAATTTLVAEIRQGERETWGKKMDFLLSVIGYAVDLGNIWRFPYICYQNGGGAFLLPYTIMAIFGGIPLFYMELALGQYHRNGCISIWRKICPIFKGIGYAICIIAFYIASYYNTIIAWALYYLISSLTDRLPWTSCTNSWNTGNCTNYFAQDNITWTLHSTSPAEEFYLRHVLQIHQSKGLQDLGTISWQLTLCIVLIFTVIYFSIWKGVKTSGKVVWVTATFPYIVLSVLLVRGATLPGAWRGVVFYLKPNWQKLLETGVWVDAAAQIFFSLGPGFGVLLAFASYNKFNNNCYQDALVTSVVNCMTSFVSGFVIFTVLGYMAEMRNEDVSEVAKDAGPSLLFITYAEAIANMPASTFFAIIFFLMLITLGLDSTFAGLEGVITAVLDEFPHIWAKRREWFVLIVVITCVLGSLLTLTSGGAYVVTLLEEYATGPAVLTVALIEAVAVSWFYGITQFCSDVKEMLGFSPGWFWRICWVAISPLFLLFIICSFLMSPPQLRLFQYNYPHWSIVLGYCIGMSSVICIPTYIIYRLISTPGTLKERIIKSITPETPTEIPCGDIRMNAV

Compound `CC1CNCCN1c1ccc2cc([N+](=O)[O-])ccc2n1` (configuration not stated) yielded a Ki in assay [1] of 0.081 nM. Further, in assay [2], the Ratio turned out to be 0.49. In the same order, the values of `CC1CN(c2ccc3cc([N+](=O)[O-])ccc3n2)CCN1` (configuration not stated) are 4.56 nM and 28. Consider `O=[N+]([O-])c1ccc2nc(N3CCNCC3)ccc2c1I`, for which the Ki in assay [1] was found to be 0.19 nM. In assay [1], `O=[N+]([O-])c1ccc2nc(N3CCNCC3)ccc2c1` [6-NITROQUIPAZINE] yielded a Ki of 0.163 nM. Further, the Ratio in assay [2] amounted to 1.

The values above are taken from ChEMBL document CHEMBL1132830, “Serotonin transporter inhibitors: synthesis and binding potency of 2'-methyl- and 3'-methyl-6-nitroquipazine” (Bioorg Med Chem Lett, 2000).
